Experimental data as given in US20200368315A1, “ANTIMICROBIAL PEPTIDES AND ADMIXTURES THEREOF SHOWING ANTIMICROBIAL ACTIVITY AGAINST GRAM-NEGATIVE PATHOGENS” (priority 2017, published 2020).
≈ marks a conversion by molar mass, not a printed value. Where “and” joins values, the source holds several entries; their conditions need not be identical. Equal entries are not always repeated. Where two headings read alike, the source gives them in different places.

What was measured:
K. pneumoniae LMG20218 [1] = format: cell-based, Klebsiella pneumoniae; conditions: nisin + GNP
Outline: (§1)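 Chequerboard broth microdilution in MHB: nisin two-fold serially diluted along one axis and GNPs along the other, each starting at its own MIC. Fresh bacterial suspension added; FIC index calculated as MICac/MICa + MICbc/MICb, with FICI ≤0.5 read as synergy.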

E. aerogenes LMG 02094 [2] = system: E. aerogenes LMG 02094
Outline: (§2)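 Chequerboard broth microdilution in MHB of two agents in combination, final volume 100 uL, with growth and sterility controls. MICs alone and in combination give FICI = MICac/MICa + MICbc/MICb; synergy FICI≤0.5, additive 0.5–1, indifferent 1–2, antagonism >2.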

P. aeruginosa LMG 6395 [3] = system: P. aeruginosa LMG 6395
Outline: as §2

E. coli LMG15862 [4] = system: E. coli LMG15862
Outline: as §2

A. baumannii LMG01041 = system: A. baumannii LMG01041
Outline: as §2

K. pneumoniae LMG20218 [5] = system: K. pneumoniae LMG20218
Outline: as §2

E. aerogenes LMG 02094 [6] = format: cell-based, Enterobacter aerogenes; conditions: nisin + GNP
Outline: as §1

L. lactis MG1363 [7] = conditions: L. lactis MG1363
P. aeruginosa LMG 6395 [8] = format: cell-based, Pseudomonas aeruginosa; conditions: nisin + GNP
Outline: as §1

[9] = system: human red blood cells (HRBc); assay: Hemolytic test
Experimental: Fresh human red blood cells (HRBc) were used for the hemolytic tests. After incubation with different concentrations of test compounds at 37° C. for 1 hour, the absorbance of the supernatant were measured.

E. coli LMG15862 [10] = format: cell-based, Escherichia coli; conditions: nisin + GNP
Outline: as §1

L. lactis MG1363 [11] = assay: microbe, parasite or virus in culture; conditions: Lactococcus lactis, MG1363, read-out: MIC value of antimicrobial compounds alone
[12] = system: Escherichia coli ATCC 25922; assay: microbe, parasite or virus in culture; format: cell-based; conditions: Escherichia coli, ATCC25922
Experimental: (§3) Testing was performed according to CLSI (Clinical Laboratory Standards Institute) guidelines. Read out of the study was determination of MIC—minimal inhibitory concentration expressed in μg/mL.
(§4) Out of these PBS solutions, 76.8 μL was transferred to 1423.2 μL of MH media in deep well for testing compound alone. […] Out of these working solutions 100 μL were transferred to wells in the third column of 96-well assay plates. Assay plates were previously filled with 50 μL of MH media in all wells except for the wells in the third column.
(§5) Microorganisms used were all revived from skim milk storage at −70° C. by plating them on MH agar plates. The following day a single colony of each microorganism was again streaked on fresh agar plates. The next day, using direct colony suspension method, broth solutions that achieve turbidity equivalent to 0.5 McFarland standard for each microorganism were prepared. […] Out of these suspensions, actual inoculums were prepared by diluting them 100× with MH media giving final microorganism count of 2-8×10^5 CFU/mL. For each strain of microorganisms, 20 mL of these inoculum solutions were prepared. From the second to the twelfth column of 96-well plates, 50 μL of these solutions were transferred per well. To the first column, 50 μL per well of pure growth media was added. In this manner the first column was used as sterility control of media used, the second column was used as control of microorganism's growth and the rest of the plate was used for MIC determination. All plates were incubated for 16-24 h at 37° C.
(§6) MIC value was determined by visual inspection of bacterial growth within 96-well plates. The first column in which there was no visible growth of bacteria was determined as MIC value for peptide or combination tested in that particular row.

[13] = system: Acinetobacter baumannii ATCC 17978; assay: microbe, parasite or virus in culture; format: cell-based; conditions: Acinetobacter baumannii, ATCC17978
Experimental: as §3, §4, §5, §6

[14] = system: Klebsiella pneumoniae ATCC 700603; assay: microbe, parasite or virus in culture; format: cell-based; conditions: Klebsiella pneumoniae, ATCC700603
Experimental: as §3, §4, §5, §6

[15] = system: Pseudomonas aeruginosa ATCC 27853; assay: microbe, parasite or virus in culture; format: cell-based; conditions: Pseudomonas aeruginosa, ATCC27853
Experimental: as §3, §4, §5, §6

[16] = Cell viability (ATP levels, CellTiter-Glo); conditions: human

## CC[C@@H](C)[C@@H](NC(=O)[C@@H](CCCNC(=N)N)NC(=O)[C@@H](CCCNC(=N)N)NC(=O)[C@@H](Cc1ccccc1)NC(=O)[C@@H](CC(C)C)NC(=O)[C@@H](CCCNC(=N)N)NC(=O)[C@H](N)CCCNC(=N)N)C(=O)N[C@H](CC(C)C)C(=O)N[C@H](CCCNC(=N)N)C(=O)N[C@H](Cc1c[nH]c2ccccc12)C(=O)N[C@H](CC(C)C)C(N)=O [GNP-D6]
K. pneumoniae LMG20218 [1]
  FICI: 0.375
E. aerogenes LMG 02094 [2]; vancomycin + GNP
  FICI: 0.667
P. aeruginosa LMG 6395 [3]; vancomycin + GNP
  FICI: 0.75
E. coli LMG15862 [4]; vancomycin + GNP
  FICI: 0.75 and 0.5
A. baumannii LMG01041; vancomycin + GNP
  FICI: 0.5 and 0.625
K. pneumoniae LMG20218 [5]; vancomycin + GNP
  FICI: 0.75 and 0.5
E. aerogenes LMG 02094 [6]
  FICI: 0.375
L. lactis MG1363 [7]
  MIC value of antimicrobial compounds alone: 2 µM
P. aeruginosa LMG 6395 [8]
  FICI: 0.25
[9]; HRBc, 37° C., 1 hour
  HC50: 168.9 µM
[9]; working concentration 2 μM
  HC50 relative to the working concentration: 80 fold
E. coli LMG15862 [10]
  FICI: 0.375

## CN[C@H](CC(C)C)C(=O)N[C@H]1C(=O)N[C@@H](CC(N)=O)C(=O)N[C@H]2C(=O)N[C@H]3C(=O)N[C@H](C(=O)N[C@H](C(=O)O)c4cc(O)cc(O)c4-c4cc3ccc4O)[C@H](O)c3ccc(c(Cl)c3)Oc3cc2cc(c3O[C@@H]2O[C@H](CO)[C@@H](O)[C@H](O)[C@H]2O[C@H]2C[C@](C)(N)[C@H](O)[C@H](C)O2)Oc2ccc(cc2Cl)[C@H]1O [Vancomycin, reference compound]
L. lactis MG1363 [11]
  MIC: 0.125 µM (≈ 0.181 µg/mL)
E. aerogenes LMG 02094 [2]; MIC of vancomycin alone
  MICa: 192 µM
P. aeruginosa LMG 6395 [3]; MIC of vancomycin alone
  MICa: 128 µM
E. coli LMG15862 [4]; MIC of vancomycin alone
  MICa: 64 µM
A. baumannii LMG01041; MIC of vancomycin alone
  MICa: 32 µM
K. pneumoniae LMG20218 [5]; MIC of vancomycin alone
  MICa: 128 µM
[12]
  MIC: > 128 µg/mL
[13]
  MIC: 128 µg/mL
[14]
  MIC: > 128 µg/mL
[15]
  MIC: > 128 µg/mL
[9]; even at 500 μM
  Hemolysis in the HRBc: did not induce hemolysis
[9]; human red blood cells, 37° C., 1 hour
  HC50 (hemolytic activity): >500 µM
[16]
  IC50: > 44.2 µM and > 64 µg/mL
